{
  "source": "patent US9375496B2",
  "about": "“Halogenated compounds for cancer imaging and treatment and methods for their use” (The University of British Columbia, priority 2013, dated 2016)",
  "key": {"[1]": {"target": "T1, recombinant LBD of AR (Homo sapiens, UniProt P10275)", "T1 sequence (P10275 669-900 limits assumed)": "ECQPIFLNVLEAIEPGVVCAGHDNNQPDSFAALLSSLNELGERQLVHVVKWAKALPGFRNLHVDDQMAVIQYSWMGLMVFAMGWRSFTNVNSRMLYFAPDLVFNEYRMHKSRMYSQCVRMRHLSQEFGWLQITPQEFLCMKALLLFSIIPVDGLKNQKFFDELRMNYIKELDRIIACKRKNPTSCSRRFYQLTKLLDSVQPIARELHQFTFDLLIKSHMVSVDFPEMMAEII", "experiment": "Competitive ligand-binding assay (fluorescent polarization), recombinant AR LBD", "details": "1 nM fluorescently labeled ligand, 5 h incubation, serial dilution", "experimental": "(§1) Competitive ligand-binding assays to detect the displacement of fluorescently labeled ligand from recombinant LBDs (ligand binding domains) of AR, PR, GR and estrogen receptor (ER) by R1881, MDV3100, Z (also referred to as EPI-002 or EPI) or 8d (also referred to as iodinated EPI) were performed. FIGS. 14A-14E display competitive ligand-binding curves to indicate whether R1881, Z, antiandrogens (enzalutamide, hydroxyflutamide, bicalutamide) or 8d can displace 1 nM fluorescently labeled cognant ligand from recombinant LBDs of steroid hormone receptors by using fluorescent polarization (mP). Serial dilution was performed for each test compound. Mixtures were incubated for 5 h before measurement of fluorescent polarization."}, "[2]": {"target": "T2, progesterone receptor-beta (PRβ) (Homo sapiens, UniProt P06401)", "T2 construct": "expression plasmids for full-length human PRβ; expressed in transfected cells; host or cells: LNCaP", "T2 sequence (P06401 1-933)": "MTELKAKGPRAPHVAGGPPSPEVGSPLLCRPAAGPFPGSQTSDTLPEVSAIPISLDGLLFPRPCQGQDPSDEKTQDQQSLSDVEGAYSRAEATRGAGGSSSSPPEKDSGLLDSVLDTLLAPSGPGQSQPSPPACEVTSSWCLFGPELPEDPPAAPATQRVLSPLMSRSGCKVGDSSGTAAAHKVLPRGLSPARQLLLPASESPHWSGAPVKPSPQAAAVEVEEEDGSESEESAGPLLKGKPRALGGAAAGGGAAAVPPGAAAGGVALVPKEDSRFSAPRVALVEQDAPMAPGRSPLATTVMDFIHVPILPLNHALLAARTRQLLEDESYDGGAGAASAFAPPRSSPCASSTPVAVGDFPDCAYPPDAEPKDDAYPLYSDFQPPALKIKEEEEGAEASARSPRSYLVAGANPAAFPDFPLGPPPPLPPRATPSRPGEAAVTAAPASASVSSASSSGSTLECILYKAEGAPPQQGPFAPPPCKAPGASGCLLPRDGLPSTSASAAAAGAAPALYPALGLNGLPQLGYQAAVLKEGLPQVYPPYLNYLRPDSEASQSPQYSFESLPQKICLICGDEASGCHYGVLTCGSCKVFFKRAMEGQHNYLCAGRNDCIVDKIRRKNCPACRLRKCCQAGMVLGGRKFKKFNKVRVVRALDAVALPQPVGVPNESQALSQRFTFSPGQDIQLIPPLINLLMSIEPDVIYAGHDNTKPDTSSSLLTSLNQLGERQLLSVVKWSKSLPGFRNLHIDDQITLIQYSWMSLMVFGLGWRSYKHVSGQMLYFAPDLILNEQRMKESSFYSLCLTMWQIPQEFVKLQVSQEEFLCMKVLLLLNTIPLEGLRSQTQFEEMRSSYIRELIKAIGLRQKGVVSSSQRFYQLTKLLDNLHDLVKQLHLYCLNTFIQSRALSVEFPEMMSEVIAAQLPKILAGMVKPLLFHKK", "experiment": "PRE-luciferase reporter assay in LNCaP cells cotransfected with full-length human PRβ", "format": "cell-based", "details": "1.9 μM 8d, 10 nM progesterone, 24 h, LNCaP cells (FIG. 2B)", "experimental": "To assess specificity for the AR, parallel experiments were performed in LNCaP cells with endogenous AR and ectopic expression of other closely related human hormone receptors such as the progesterone receptor-beta (PRβ), glucocorticoid receptor (GR) and estrogen receptor-α (ER).\nLNCaP cells were cotransfected with the expression plasmids for full-length human PRβ and the relative reporter (PRE-luciferase) for 24 h, and then treated with DMSO, 5 μM MDV3100, 25 μM Z, or 1.9 μM 8d with or without 10 nM progesterone for 24 h (FIG. 2B). Compound 8d had no effect on the transcriptional activity of closely related PRβ."}, "[3]": {"test_system": "PC3 cells", "experiment": "PC3 cell viability, alamarBlue Cell Viability Assay", "format": "cell-based", "details": "day 3, at concentrations that reduced LNCaP proliferation", "text": "Effects of 8d (also referred to as I-EPI-002) on androgen-dependent proliferation of LNCaP cells treated with R1881 were compared with PC3 and DU145 cell viability by alamarBlue Cell Viability Assay (FIG. 16)."}, "[4]": {"target": "T3, recombinant LBD of estrogen receptor (ER) (Homo sapiens, UniProt P03372)", "T3 sequence (P03372 311-547 limits assumed)": "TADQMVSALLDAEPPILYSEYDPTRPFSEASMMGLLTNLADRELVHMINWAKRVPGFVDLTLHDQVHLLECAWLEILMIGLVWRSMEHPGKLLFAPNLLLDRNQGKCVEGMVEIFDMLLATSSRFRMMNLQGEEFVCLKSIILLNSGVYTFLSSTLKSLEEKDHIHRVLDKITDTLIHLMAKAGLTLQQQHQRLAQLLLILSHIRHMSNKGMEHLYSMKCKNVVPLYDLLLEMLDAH", "experiment": "Competitive ligand-binding assay (fluorescent polarization), recombinant ER LBD", "details": "1 nM fluorescently labeled ligand, 5 h incubation, serial dilution", "experimental": "as §1"}},
  "data": [
    {"smiles": "CC(C)(c1ccc(OC[C@H](O)CO)cc1)c1ccc(OC[C@H](O)CCl)c(I)c1", "note": "[Compound 8d, (R)-3-(4-(2-(4-((S)-3-chloro-2-hydroxypropoxy)-3-iodophenyl)propan-2-yl)phenoxy)propane-1,2-diol]", "values": [
      {"measurement": "binding to LBD of AR (displacement of fluorescently labeled ligand)", "setting": "[1]", "result": "does not bind"},
      {"measurement": "transcriptional activity of PRβ (PRE-luciferase)", "setting": "[2]", "result": "no effect"},
      {"measurement": "viability of PC3 cells", "setting": "[3]", "result": "no effect"},
      {"measurement": "binding to LBD of ER (displacement of fluorescently labeled ligand)", "setting": "[4]", "result": "does not bind"}
    ]}
  ]
}
